Source: publication PMC11881662 (Journal of Enzyme Inhibition and Medicinal Chemistry, 2025)
Converted amounts (≈) assume the structure as drawn.

Assays:
plasmid pBR322 = assay: Ethidium bromide assay, DNA-binding effects on plasmid pBR322; details: EtBr-DNA complex, compound 10 μM, 25 °C 30 min; no drug = 100% fluorescence
poly(dA-dT)2 = assay: Ethidium bromide assay, DNA-binding effects on poly; details: EtBr-DNA complex, compound 10 μM, 25 °C 30 min
T4 coliphage DNA = assay: Ethidium bromide assay, DNA-binding effects on T4 coliphage DNA; details: EtBr-DNA complex, compound 10 μM, 25 °C 30 min
recombinant human DHFR = biological target: T1, recombinant human DHFR (Homo sapiens, UniProt P00374); assay: Dihydrofolate reductase; assay type: biochemical
T1 sequence (P00374 1-187): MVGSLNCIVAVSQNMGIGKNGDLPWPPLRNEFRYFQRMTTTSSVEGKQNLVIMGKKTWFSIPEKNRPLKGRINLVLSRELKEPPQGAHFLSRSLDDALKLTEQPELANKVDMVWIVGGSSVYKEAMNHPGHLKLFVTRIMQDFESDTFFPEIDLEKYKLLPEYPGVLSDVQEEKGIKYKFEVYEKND

poly(dG-dC)2 = assay: Ethidium bromide assay, DNA-binding effects on poly; details: EtBr-DNA complex, compound 10 μM, 25 °C 30 min
calf thymus DNA = assay: Ethidium bromide assay, DNA-binding effects on calf thymus DNA; details: EtBr-DNA complex, compound 10 μM, 25 °C 30 min
MCF-7 cells [1] = assay: Wound healing assay; assay type: cell-based, human; details: MCF-7, at IC50 concentrations
MCF-7 cells [2] = assay: Apoptosis induction, Annexin V-FITC/PI flow cytometry; assay type: cell-based, human; details: MCF-7, at IC50, 24 h
[3] = system: MCF-7 breast cancer cell line; assay: In vitro anti-proliferative MTT assay; assay type: cell-based, human; details: for IC50: Homo sapiens, MCF7, 24 h, read-out: MCF-7 IC50; for Selectivity index (SI): IC50 against normal cells (HSF) divided by IC50 against cancer cells (MCF-7)
[4] = system: normal human skin fibroblasts (HSF); assay: Normal cytotoxicity evaluation, MTT; assay type: cell-based; details: Skin fibroblast, 24 h, read-out: Normal HSF IC50

| SMILES | Decrease in fluorescence (%) pBr322 (plasmid pBR322) | Decrease in fluorescence (%) Poly (dA-dT)2 (poly(dA-dT)2) | Decrease in fluorescence (%) T4 DNA (T4 coliphage DNA) | IC50 (recombinant human DHFR) | Decrease in fluorescence (%) Poly (dG-dC)2 (poly(dG-dC)2) | Decrease in fluorescence (%) Calf Thymus DNA (calf thymus DNA) | % Wound closure after 24 h treatment (MCF-7 cells [1]) | Percentage of necrosis (MCF-7 cells [2]) | IC50 [3] | IC50 [4] | Percentage of total apoptosis (MCF-7 cells [2]) | Selectivity index (SI) [3] |
| --- | --- | --- | --- | --- | --- | --- | --- | --- | --- | --- | --- | --- |
| O=C(O)C(/C=C/c1c(Cl)cccc1Cl)=N\Nc1nc(-c2ccc(F)cc2)cs1 [Compound 15, (2Z,3E)-4-(2,6-dichlorophenyl)-2-(2-(4-(4-fluorophenyl)thiazol-2-yl)hydrazinylidene)but-3-enoic acid] | 70.97% | 55.27% | 39.02% | 62.31 ± 0.02 µM | 57.81% | 72.10% | – | – | – | – | – | – |
| O=C(O)C(/C=C/c1c(Cl)cccc1Cl)=N\Nc1nc(-c2ccccc2)cs1 [Compound 12, (2Z,3E)-4-(2,6-dichlorophenyl)-2-(2-(4-phenylthiazol-2-yl)hydrazinylidene)but-3-enoic acid] | 54.84% | 54.80% | 48.17% | 21.06 ± 0.02 µM | 59.37% | 60.53% | – | – | – | – | – | – |
| O=C(O)C(/C=C/c1c(Cl)cccc1Cl)=N\Nc1nc(-c2ccc(Br)cc2)cs1 [Compound 17, (2Z,3E)-4-(2,6-dichlorophenyl)-2-(2-(4-(4-bromophenyl)thiazol-2-yl)hydrazinylidene)but-3-enoic acid] | 61.65% | 42.62% | 35.36% | 60.28 ± 0.02 µM | 63.44% | 54.21% | – | – | – | – | – | – |
| O=C(O)C(/C=C/c1c(Cl)cccc1Cl)=N\Nc1nc(-c2ccc([N+](=O)[O-])cc2)cs1 [Compound 18, (2Z,3E)-4-(2,6-dichlorophenyl)-2-(2-(4-(4-nitrophenyl)thiazol-2-yl)hydrazinylidene)but-3-enoic acid] | 55.56% | 37.00% | 45.12% | 63.18 ± 0.01 µM | 62.50% | 76.84% | – | – | – | – | – | – |
| O=C(O)C(/C=C/c1ccc(Cl)cc1)=N\Nc1nc(-c2ccc(Br)cc2)cs1 [Compound 10, (2Z,3E)-4-(4-Chlorophenyl)-2-(2-(4-(4-bromophenyl)thiazol-2-yl)hydrazinylidene)but-3-enoic acid] | 53.76% | 39.34% | 32.32% | 58.29 ± 0.02 µM | 50.15% | 30.53% | – | – | – | – | – | – |
| CN(Cc1cnc2nc(N)nc(N)c2n1)c1ccc(C(=O)N[C@@H](CCC(=O)O)C(=O)O)cc1 [MTX, Methotrexate, reference compound] | 100% | – | – | – | – | – | 45.46% | 6.50% | 56.9 µg/mL (≈ 125 µM) | 126 µg/mL (≈ 276 µM) | – | – |
| O=C(O)C(/C=C/c1ccc(Cl)cc1)=N\Nc1nc(-c2ccc(F)cc2)cs1 [Compound 8, (2Z,3E)-4-(4-Chlorophenyl)-2-(2-(4-(4-fluorophenyl)thiazol-2-yl)hydrazinylidene)but-3-enoic acid] | 60.93% | 52.83% | 37.19% | 10.51 ± 0.05 µM | 62.99% | 40.00% | – | – | – | – | – | – |
| O=C(O)C(/C=C/c1ccc(Cl)cc1)=N\Nc1nc(-c2ccc([N+](=O)[O-])cc2)cs1 [Compound 11, (2Z,3E)-4-(4-Chlorophenyl)-2-(2-(4-(4-nitrophenyl)thiazol-2-yl)hydrazinylidene)but-3-enoic acid] | 56.21% | 53.39% | 28.89% | 0.06 ± 0.03 µM | 56.57% | 46.31% | 52.72% | 4.81% | 12.5 µg/mL (≈ 29.2 µM) | 84.4 µg/mL (≈ 197 µM) | 23.99% | 6.74 |
| COc1ccc(-c2csc(N/N=C(/C=C/c3ccc(Cl)cc3)C(=O)O)n2)cc1 [Compound 7, (2Z,3E)-4-(4-Chlorophenyl)-2-(2-(4-(4-methoxyphenyl)thiazol-2-yl)hydrazinylidene)but-3-enoic acid] | 62.36% | – | 36.58% | 39.41 ± 0.03 µM | 62.38% | 44.21% | – | – | – | – | – | – |
| O=C(O)C(/C=C/c1ccc(Cl)cc1)=N\Nc1nc(-c2ccc(Cl)cc2)cs1 [Compound 9, (2Z,3E)-4-(4-Chlorophenyl)-2-(2-(4-(4-chlorophenyl)thiazol-2-yl)hydrazinylidene)but-3-enoic acid] | 53.40% | 71.19% | 50.00% | 36.18 ± 0.01 µM | 49.23% | 53.68% | – | – | – | – | – | – |
| COc1ccc(-c2csc(N/N=C(/C=C/c3c(Cl)cccc3Cl)C(=O)O)n2)cc1 [Compound 14, (2Z,3E)-4-(2,6-dichlorophenyl)-2-(2-(4-(4-methoxyphenyl)thiazol-2-yl)hydrazinylidene)but-3-enoic acid] | 51.61% | 67.21% | 40.85% | 31.02 ± 0.04 µM | 61.25% | 58.95% | – | – | – | – | – | – |
| COc1cc(Cc2cnc(N)nc2N)cc(OC)c1OC [TMP, trimethoprim, reference compound] | 100% | – | – | – | – | – | – | – | – | – | – | – |
| Cc1ccc(-c2csc(N/N=C(/C=C/c3c(Cl)cccc3Cl)C(=O)O)n2)cc1 [Compound 13, (2Z,3E)-4-(2,6-dichlorophenyl)-2-(2-(4-(4-tolyl)thiazol-2-yl)hydrazinylidene)but-3-enoic acid] | 62.01% | 55.74% | 51.22% | 18.06 ± 0.03 µM | 75.62% | 67.71% | – | – | – | – | – | – |
| O=C(O)C(/C=C/c1ccc(Cl)cc1)=N\Nc1nc(-c2ccccc2)cs1 [Compound 5, (2Z,3E)-4-(4-Chlorophenyl)-2-(2–(4-phenylthiazol-2-yl)hydrazinylidene)but-3-enoic acid] | 63.44% | 56.91% | 28.05% | 0.08 ± 0.001 µM | 67.28% | 63.15% | 45.19% | 3.09% | 2.72 µg/mL (≈ 7.09 µM) | 32.6 µg/mL (≈ 84.8 µM) | 29.63% | 11.97 |
| COc1cccc2c1C(=O)c1c(O)c3c(c(O)c1C2=O)C[C@@](O)(C(=O)CO)C[C@@H]3O[C@H]1C[C@H](N)[C@H](O)[C@H](C)O1 [DOX, doxorubicin, reference compound] | 100% | – | – | 8.31 ± 0.06 µM | – | – | – | – | – | – | – | – |
| O=C(O)C(/C=C/c1c(Cl)cccc1Cl)=N\Nc1nc(-c2ccc(Cl)cc2)cs1 [Compound 16, (2Z,3E)-4-(2,6-dichlorophenyl)-2-(2-(4-(4-chlorophenyl)thiazol-2-yl)hydrazinylidene)but-3-enoic acid] | 64.16% | 51.29% | 52.44% | 53.18 ± 0.01 µM | 63.12% | 50.53% | – | – | – | – | – | – |
